Measured values as given in publication PMC9917025, “(2-Hydroxy-3-Methoxybenzylidene)thiazolo[3,2-a]pyrimidines: Synthesis, Self-Assembly in the Crystalline Phase and Cytotoxic Activity” (International Journal of Molecular Sciences, 2023).

Legend:
[1] = test system: HuTu 80 (human duodenal adenocarcinoma); test: MTT cytotoxicity assay, HuTu 80 cells; assay type: cell-based; details: for IC50: Homo sapiens, HuTu80, MTT, 48 h incubation, mean ± SD, triplicate
Description: (§1) For the experiments, the tumor cell cultures of M-HeLa clone 11 (epithelioid carcinoma of the cervix, subline HeLa., clone M-HeLa), HuTu 80, human duodenal adenocarcinoma, MCF7—human breast adenocarcinoma (pleural fluid) collected from the Institute of Cytology, Russian Academy of Sciences (St. Petersburg, Russia); PC3—prostate adenocarcinoma cell line collected from ATCC (American Type Cell Collection, Manassas, VA, USA; CRL 1435; human liver cells (Chang liver) and the Research Institute of Virology of the Russian Academy of Medical Sciences (Moscow, Russia) were used for cytotoxicity analysis.
(§2) The cytotoxic effect on cells was determined by the colorimetric method of cell proliferation—MTT test. The cells were seeded on a 96-well Nunc plate at a concentration of 5 × 10^3 cells per well in a volume of 100 µL of medium and cultured in a CO2 incubator at 37 °C until a monolayer was formed. Then, the nutrient medium was removed and 100 μL of the test drug solution in these dilutions was added to the wells prepared directly in the nutrient medium with the addition of 5% DMSO to improve solubility. After 48 h of cell incubation with test compounds, the nutrient medium was removed from the plates and 100 μL of serum-free nutrient medium with MTT at a concentration of 0.5 mg/mL was added and incubated for 4 h at 37 °C. C. Formazan crystals were added to 100 µL of DMSO. The optical density was recorded at 540 nm on an Invitrologic microplate reader (Novosibirsk, Russia). The experiments for all compounds were repeated three times.

[2] = test system: MCF−7 (human breast adenocarcinoma); test: MTT cytotoxicity assay, MCF-7 cells; assay type: cell-based; details: MCF7, 48 h incubation, mean ± SD, triplicate
Protocol: The cytotoxic effect on cells was determined by the colorimetric method of cell proliferation—MTT test. […] C. Formazan crystals were added to 100 µL of DMSO. The optical density was recorded at 540 nm on an Invitrologic microplate reader (Novosibirsk, Russia). The experiments for all compounds were repeated three times.

[3] = test system: PC3 (prostate adenocarcinoma cell line); test: MTT cytotoxicity assay, PC3 cells; assay type: cell-based; details: Homo sapiens, PC-3, 48 h incubation, mean ± SD, triplicate
Description: as §1, §2

[4] = test system: Chang liver (HeLa derivative), human liver cells; test: MTT cytotoxicity assay, normal Chang liver cells; assay type: cell-based; details: for IC50: Homo sapiens, HeLa, MTT, 48 h incubation, mean ± SD, triplicate, read-out: IC50 (µM) Chang Liver (HeLa), normal cell line
Description: as §1, §2

[5] = test system: M-HeLa clone 11 (epithelioid carcinoma of the cervix, subline HeLa, clone M-HeLa); test: MTT cytotoxicity assay, M-HeLa cells; assay type: cell-based; details: for IC50: Homo sapiens, M-HeLa, MTT, 48 h incubation, mean ± SD, triplicate; for selectivity index (SI): ratio between IC50 for normal cells and IC50 for tumor cells, with respect to M-HeLa cell line
Description: as §1, §2

Row | Structure (SMILES) | melting point [°C] | IC50 [1] [µM] | IC50 [2] [µM] | IC50 [3] [µM] | IC50 [4] [µM] | IC50 [5] [µM] | activity on normal cells, Chang liver (in words) [4] | cytotoxicity against M-HeLa (in words) [5] | selectivity index (SI) [5] | efficiency of cytotoxicity towards M-HeLa compared to Sorafenib ([5]; relative to reference drug Sorafenib) | cytotoxicity towards HuTu 80 (in words) [1]
1 | COc1cccc(/C=c2\sc3n(c2=O)C(c2ccc(C)cc2)C(C(C)=O)=C(C)N=3)c1O (stereo not shown) [Compound 1, 6-Acetyl-(Z)−2-(2-hydroxy−3-methoxybenzylidene)−7-methyl−5-(p-tolyl)−2H-thiazolo[3,2-a]pyrimidine−3(5H)-one] | 209 to 211 | 88 ± 6.9 | > 100 | 57.4 ± 4.5 | > 100 | 88 ± 7 | – | – | – | – | –
2 | CCOC(=O)C1=C(C)N=c2s/c(=C\c3cccc(OC)c3O)c(=O)n2C1c1ccccc1OC (stereo not shown) [Compound 3, Ethyl (Z)-2-(2-hydroxy-3-methoxybenzylidene)-7-methyl-5-(2-methoxyphenyl)-3-oxo-2,3-dihydro-5H-thiazolo[3,2-a]pyrimidine-6-carboxylate] | 193 to 195 | > 100 | > 100 | 54.1 ± 4.3 | 96 ± 7.5 | 98.1 ± 7.7 | – | – | – | – | –
3 | CCOC(=O)C1=C(C)N=c2s/c(=C\c3cccc(OC)c3O)c(=O)n2C1c1ccc(Br)cc1 (stereo not shown) [Compound 6, Ethyl 5-(4-bromophenyl)-(Z)−2-(2-hydroxy−3-methoxybenzylidene)−7-methyl−3-oxo−2,3-dihydro−5H-thiazolo[3,2-a]pyrimidine−6-carboxylate] | 234 to 236 | 90.3 ± 8.1 | > 100 | 100 ± 8.6 | 64.2 ± 5.1 | 85 ± 7.8 | – | – | – | – | –
4 | CNC(=O)c1cc(Oc2ccc(NC(=O)Nc3ccc(Cl)c(C(F)(F)F)c3)cc2)ccn1 [Sorafenib, reference compound] | – | 13 ± 1.2 | – | 12.7 ± 1.1 | – | 25 ± 1.8 | – | – | lower than 1 | – | –

The next lines start with results.

Row | melting point [°C] | Structure (SMILES) | IC50 [1] [µM] | IC50 [2] [µM] | IC50 [3] [µM] | IC50 [4] [µM] | IC50 [5] [µM] | activity on normal cells, Chang liver (in words) [4] | cytotoxicity against M-HeLa (in words) [5] | selectivity index (SI) [5] | efficiency of cytotoxicity towards M-HeLa compared to Sorafenib ([5]; relative to reference drug Sorafenib) | cytotoxicity towards HuTu 80 (in words) [1]
5 | 206 to 208 | CCOC(=O)C1=C(C)N=c2s/c(=C\c3cccc(OC)c3O)c(=O)n2C1c1cccc([N+](=O)[O-])c1 (stereo not shown) [Compound 2, Ethyl (Z)−2-(2-hydroxy−3-methoxybenzylidene)−7-methyl−5-(3-nitrophenyl)−3-oxo−2,3-dihydro−5H-thiazolo[3,2-a]pyrimidine−6-carboxylate] | 90 ± 8 | 72 ± 5.8 | > 100 | > 100 | 16.2 ± 1.3 | low biological activity | high cytotoxicity | higher than 6 | two times higher | –
6 | 231 to 233 | CCOC(=O)C1=C(C)N=c2s/c(=C\c3cccc(OC)c3O)c(=O)n2C1c1ccccc1 (stereo not shown) [Compound 4, Ethyl (Z)−2-(2-hydroxy−3-methoxybenzylidene)−7-methyl−5-phenyl−3-oxo−2,3-dihydro−5H-thiazolo[3,2-a]pyrimidine−6-carboxylate] | > 100 | > 100 | > 100 | > 100 | > 100 | – | – | – | – | –
7 | 190 to 192 | CCOC(=O)C1=C(C)N=c2s/c(=C\c3cccc(OC)c3O)c(=O)n2C1c1cccc(Br)c1 (stereo not shown) [Compound 5, Ethyl 5-(3-bromophenyl)-(Z)−2-(2-hydroxy−3-methoxybenzylidene)−7-methyl−3-oxo−2,3-dihydro−5H-thiazolo[3,2-a]pyrimidine−6-carboxylate] | 43.3 ± 3.4 | > 100 | > 100 | 51.4 ± 4.1 | > 100 | Moderate cytotoxicity | – | – | – | Moderate cytotoxicity
